# Columns and labels:
# [1] = Stability of CLBQ14 in rat plasma samples; format: in vitro ADME, Sprague Dawley rat
# [2] = tested on: human MetAPs; settings: in vitro; ref [2]; cited from earlier work
# [3] = tested on: MtMetAP1a; settings: high-throughput screening; ref [2], [17]; cited from earlier work
# [4] = Stability of CLBQ14 in rat urine samples; format: in vitro ADME, Sprague Dawley rat
# [5] = tested on: aged non-growing Mtb; settings: in vitro; ref [2]; cited from earlier work
# [6] = tested on: MtMetAP1c; settings: high-throughput screening; ref [2], [17]; cited from earlier work
# [7] = tested on: replicating Mtb; settings: in vitro; ref [2]; cited from earlier work
# [8] = Pharmacokinetic study, single IV bolus in adult male Sprague Dawley rats; format: in vivo; settings: for AUC(0-inf) / C0 / clearance / half-life / Vd: male, Sprague Dawley, rat, plasma, iv
# [9] = Sprague Dawley, rat, Freeze-thaw cycle stability, mean recovery ± SD
# [10] = Sprague Dawley, rat, Processed sample or auto-sampler stability, mean recovery ± SD, No IS
# [11] = Sprague Dawley, rat, Processed sample or auto-sampler stability, mean recovery ± SD, With IS
# [12] = Sprague Dawley, rat, Short-term (bench-top) stability, mean recovery ± SD
# [13] = 2 mg/kg single IV bolus, male SD rats, n = 4, mean ± SD
# [14] = 5 mg/kg single IV bolus, male SD rats, n = 3, mean ± SD
# [15] = 10 mg/kg single IV bolus, male SD rats, n = 4, mean ± SD
compound,measurement,setting,value
"Oc1c(Br)cc(Cl)c2cccnc12 [CLBQ14, 7-bromo-5-chloroquinolin-8-ol]",recovery at 2.5 ng/mL,[1]; [9],104 ± 4.72%
same,recovery at 400 ng/mL,[1]; [9],95.9 ± 1.89%
same,recovery at 800 ng/mL,[1]; [9],96.8 ± 1.25%
same,recovery at 14 days,"[1]; Sprague Dawley, rat, Long-term stability, mean recovery ± SD",≤ 91.3%
same,recovery,"[1]; Sprague Dawley, rat, Mean recovery after three freeze-thaw cycles",> 95.9%
same,recovery at 2 h,[1]; [10],97.8 ± 1.11%
same,recovery at 4 h,[1]; [10],97.1 ± 5.42%
same,recovery at 6 h,[1]; [10],95.5 ± 6.69%
same,recovery at 2 h,[1]; [11],95.9 ± 1.87%
same,recovery at 4 h,[1]; [11],94.7 ± 4.2%
same,recovery at 6 h,[1]; [11],97.3 ± 5.55%
same,recovery at 2 h,[1]; [12],91.6 ± 4.06%
same,recovery at 4 h,[1]; [12],95.1 ± 3.24%
same,recovery at 6 h,[1]; [12],93.7 ± 1.17%
same,Stability at room temperature,"[1]; rat plasma samples, room temperature",stable for up to 6 hours
same,Selectivity for both MtMetAPs over human MetAPs,[2],great selectivity
same,Inhibition of MtMetAP1a,[3],potent and selective inhibitor
same,Stability at room temperature,[4],stable for up to 6 hours
same,Potency against aged non-growing Mtb,[5],increased potency
same,Inhibition of MtMetAP1c,[6],potent and selective inhibitor
same,Potency against replicating Mtb,[7],great potency
same,A (coefficient of distributional phase),[8]; [13],1.39 ± 0.27 mg/L
same,B (coefficient of terminal phase),[8]; [13],0.05 ± 0.00 mg/L
same,A (coefficient of distributional phase),[8]; [14],3.14 ± 0.42 mg/L
same,B (coefficient of terminal phase),[8]; [14],0.09 ± 0.04 mg/L
same,A (coefficient of distributional phase),[8]; [15],5.09 ± 1.36 mg/L
same,B (coefficient of terminal phase),[8]; [15],0.17 ± 0.07 mg/L
same,Administered dose excreted unchanged in urine,"[8]; after 24 hr, IV bolus, male SD rats",0.19 ± 0.04%
same,AUC(0-inf),[8]; 2 mg/kg,1360 ± 60 ng·h/mL
same,C0,[8]; 2 mg/kg,1440 ± 270 ng/mL
same,clearance,"[8]; 2 mg/kg, Cl (total clearance), 2 mg/kg single IV bolus, male SD rats, n = 4, mean ± SD",24.7 mL/min/kg
same,half-life,"[8]; 2 mg/kg, T1/2α (half-life of distributional phase), 2 mg/kg single IV bolus, male SD rats, n = 4, mean ± SD",0.16 ± 0.04 h
same,half-life,"[8]; 2 mg/kg, T1/2β (elimination half-life of the beta elimination phase), 2 mg/kg single IV bolus, male SD rats, n = 4, mean ± SD",14.8 ± 0.53 h
same,Vd,"[8]; 2 mg/kg, Vss (volume of distribution at steady state), 2 mg/kg single IV bolus, male SD rats, n = 4, mean ± SD",24.3 ± 1.28 L/kg
same,AUC(0-inf),[8]; 5 mg/kg,1960 ± 400 ng·h/mL
same,C0,[8]; 5 mg/kg,3240 ± 440 ng/mL
same,clearance,"[8]; 5 mg/kg, Cl (total clearance), 5 mg/kg single IV bolus, male SD rats, n = 3, mean ± SD",43.7 mL/min/kg
same,half-life,"[8]; 5 mg/kg, T1/2α (half-life of distributional phase), 5 mg/kg single IV bolus, male SD rats, n = 3, mean ± SD",0.17 ± 0.03 h
same,half-life,"[8]; 5 mg/kg, T1/2β (elimination half-life of the beta elimination phase), 5 mg/kg single IV bolus, male SD rats, n = 3, mean ± SD",10 ± 4.6 h
same,Vd,"[8]; 5 mg/kg, Vss (volume of distribution at steady state), 5 mg/kg single IV bolus, male SD rats, n = 3, mean ± SD",23.2 ± 11.5 L/kg
same,AUC(0-inf),[8]; 10 mg/kg,4830 ± 740 ng·h/mL
same,C0,[8]; 10 mg/kg,5270 ± 1430 ng/mL
same,clearance,"[8]; 10 mg/kg, Cl (total clearance), 10 mg/kg single IV bolus, male SD rats, n = 4, mean ± SD",35.2 mL/min/kg
same,clearance,"[8]; 10 mg/kg, Estimated total plasma clearance, across the 3 groups (2, 5 and 10 mg/kg IV bolus), male SD rats",≤ 43.7 mL/min/kg
same,Vd,"[8]; 10 mg/kg, Steady state volume of distribution, across the 3 groups (2, 5 and 10 mg/kg IV bolus), male SD rats",≤ 25.3 L/kg
same,half-life,"[8]; 10 mg/kg, T1/2α (half-life of distributional phase), 10 mg/kg single IV bolus, male SD rats, n = 4, mean ± SD",0.25 ± 0.09 h
same,half-life,"[8]; 10 mg/kg, T1/2β (elimination half-life of the beta elimination phase), 10 mg/kg single IV bolus, male SD rats, n = 4, mean ± SD",13.4 ± 3.59 h
same,Vd,"[8]; 10 mg/kg, Vss (volume of distribution at steady state), 10 mg/kg single IV bolus, male SD rats, n = 4, mean ± SD",27.3 ± 11.6 L/kg
